Data: paper PMC3024946, “Hydroxyproline-containing collagen analogs trigger the release and activation of collagen-sequestered proMMP-2 by competition with prodomain-derived peptide P33-42” (Fibrogenesis & Tissue Repair, 2011)

Legend:
ActMMP-2 = assay: Solid-phase binding of [125I]-actMMP-2 to immobilized collagens/peptides (microwells); set-up: species or system human; settings: ActMMP-2, 2 ng/well; coated wells; 4°C, 2 h; residual radioactivity; mean ± SD, at least five experiments in triplicate
Procedure: (§1) Human recombinant proMMPs and in vitro activated MMPs were obtained from Invitek and were labeled with the [^125I]-Bolton-Hunter reagent according to the manufacturer's instructions (PerkinElmer, Rodgau, Germany) before the buffer was exchanged for phosphate-buffered saline (PBS) with 0.05% (vol/vol) Tween 20 by gel filtration as described previously. Specific radioactivity for [^125I]-MMPs was 3-9 × 10^4 cpm/ng. Precipitation with 10% (wt/vol) trichloroacetic acid and 200 μg of BSA recovered 96% to 100% of protein-bound radioactivity. Aliquots of labeled MMPs were frozen and stored at -80°C. The activity and integrity were checked by substrate gel zymography using SDS-PAGE and autoradiography with overnight exposure to Biomax MS film (Kodak, Stuttgart, Germany) (Figure 2A).
(§2) Native human CI, CIII and CVI were purified from skin tissue and placenta. The CI single chains α1(I) and α2(I) were obtained and modified as described previously. To prepare defined fragments, 2 mg of α1(I) were dissolved in 1 ml of 70% (vol/vol) formic acid at room temperature, the tubes were flushed with nitrogen for 10 min, and then 2 mg of CB were added. After incubation for 4 h at 37°C, free CB was neutralized and the samples were lyophilized. The peptides CB3, CB6, CB7 and CB8 were separated from the reaction mixture by gel filtration followed by ion-exchange chromatography. The resulting peptides were characterized by amino acid analysis and SDS-PAGE [45, 46]. The CB peptides had the following melting temperatures: CB3, 23.9°C; CB6, 26.7°C; CB7, 28.1°C; and CB8, 28.0°C [31].
(§3) The following collagen analogs and control peptides were synthesized as described previously: (GPO)10, H-Gly-Cys-Hyp-(Gly-Pro-Hyp)10-Gly-Cys-Hyp-Gly-NH2; (GPP)10, H-Gly-Cys-Pro-(Gly-Pro-Pro)10-Gly-Cys-Pro-Gly-NH2; and GAP, H-Gly-Ala-Cys-(Gly-Ala-Pro)5-Gly-Phe-Hyp-Gly-Glu-Arg-(Gly-Ala-Pro)5-NH2. Peptides (POG)10, (PPG)10 and (POG)5 were purchased from Peptide International (Louisville, KY, USA). Spontaneous triple-helix assembly was approved by polarimetry over a 10-cm path length at 1°C/min in 10 mM phosphate buffer, pH 7.4. At 5 mg/ml, midpoints of melting curves occurred at 82.3 ± 1.4°C for (GPO)10 and at 45.8 ± 0.8°C for (GPP)10. […] Graphs were calculated from the primary data using a custom fitting program written by D.A. Slatter (Department of Biochemistry, University of Cambridge, Cambridge, UK [48]) to model different possible transitions. All collagens, CI derivatives and peptides were stored in stock solutions of 2 mg/ml in 150 mM acetic acid at -20°C.
(§4) ProMMP-2 and proMMP-9 or actMMP-2 and actMMP-9 were bound to nitrocellulose and polystyrene-immobilized native collagens, CI chains, CB peptides or structural analogs. Serial dilutions of collagens or CI derivatives in 150 mM acetic acid were dotted at 3 × 3 μl to a nitrocellulose membrane with high protein-binding capacity (GE Healthcare, Munich, Germany). Air-dried membranes were blocked with PBS and 0.3% (vol/vol) Tween 20 overnight at 4°C, washed three times, and incubated with 1 ng/ml [^125I]-pro- and actMMP-2 and pro- and actMMP-9 in PBS and 0.3% (vol/vol) Tween 20 for 2 h at room temperature. Membranes were washed again and air-dried, and bound MMP was monitored by autoradiography. In parallel, polystyrene microtiter plates (Dynex, Chantilly, VA, USA) were coated with collagen proteins and peptides. Here 2 μg/well or 200 ng/well proteins and peptides or BSA as control were immobilized in 100 μl of 50 mM ammonium bicarbonate buffer, pH 9.6, by overnight incubation at 4°C. Immobilization efficacies were 20% to 45% of total proteins. Wells were washed three times with PBS, and nonspecific binding sites were blocked with PBS and 0.05% (vol/vol) Tween 20 for 1 h at room temperature. All incubation steps were performed with 2 ng of [^125I]-MMPs at 4°C for 2 h. […]

ProMMP-9 = assay: Solid-phase binding of [125I]-proMMP-9 to immobilized collagens/peptides (microwells); set-up: species or system human; settings: for Binding of [125I]-MMPs: ProMMP-9, 2 ng/well, coated wells, 4°C, 2 h, residual radioactivity, mean ± SD, at least five experiments in triplicate
Procedure: as §1, §2, §3, §4

Binding of [125I]-MMPs (ActMMP-2)	Binding of [125I]-MMPs (ProMMP-9)	binding of proMMP vs respective actMMP (ProMMP-9; proMMP-9 vs actMMP-9 (stated jointly for MMP-2 and MMP-9))	Substance
2.1 ± 0.7 % of maximum control	4.9 ± 0.7 % of maximum control	–	H-Gly-Cys-Pro-(Gly-Pro-Pro)10-Gly-Cys-Pro-Gly-NH2 [(GPP)10, Triple-helical Gly-Pro-Pro (GPP)10, devoid of Hyp]
6.2 ± 3.1 % of maximum control	36.1 ± 1.7 % of maximum control	two- to sevenfold more strongly	H-Gly-Cys-Hyp-(Gly-Pro-Hyp)10-Gly-Cys-Hyp-Gly-NH2 [(GPO)10, triple-helical Hyp-containing collagen analog]
